Experimental data taken from US9573947B2, “Salt of pyrazoloquinoline derivative, and crystal thereof” (Eisai R&D Management Co., Ltd., priority 2013, dated 2017).

Columns and labels:
[1] = Dissolution test in fasted state simulated intestinal fluid; assay type: physicochemical; settings: for CONCENTRATION (dissolution): fasted state simulated intestinal fluid pH 6.5, 37° C., 50 rpm, in terms of compound (I); for concentration achieved relative to the concentration of compound (I): dissolution test, fasted state simulated intestinal fluid
Procedure: Each of compound (I) (50 mg), the compound of Example 1 (30 mg) and the compound of Example 2 (30 mg) was filled into a hydroxypropyl methylcellulose capsule, together with an equal weight of lactose hydrate. A 708-DS from Agilent Technologies was equipped with small stirring paddles and small vessels, and used as a dissolution test apparatus. Each drug-filled capsule was added to 50 ml of fasted state simulated intestinal fluid (a phosphate buffer pH 6.5 containing 0.75 mM lecithin and 3 mM sodium taurocholate) which had been warmed to 37° C. The drug was dissolved by rotating the stirring paddle at a speed of 50 rpm. The dissolved solution was sampled over time and the drug concentrations were measured by HPLC. Such dissolution tests using fasted state simulated intestinal fluid are often used to evaluate the dissolution and absorption characteristics of drugs (e.g., Takano et al., “Oral absorption of poorly water-soluble drugs: computer simulation of fraction absorbed in humans from a miniscale dissolution test”, Pharm Res., vol. 23, pp. 1144-1156, 2006). The results were shown in Table 1 and the graph in FIG. 12.

[2] = Test on oral absorption characteristics in dogs; assay type: in vivo, beagle dogs; settings: for AREA UNDER PLASMA CONCENTRATION-TIME CURVE, MEAN: mean of 4 beagle dogs; for PLASMA CONCENTRATION MEAN: mean of dogs

COc1ncc(C)c(-c2ccc3c(c2)[nH]c(=O)c2cnn([C@H]4CCOC4)c23)c1C.O=C(O)/C=C\C(=O)O [Example 1, (S)-7-(2-methoxy-3,5-dimethylpyridin-4-yl)-1-(tetrahydrofuran-3-yl)-1H-pyrazolo[4,3-c]quinolin-4(5H)-one Monomaleate Salt]
CONCENTRATION (dissolution) ([1]; 6 minutes): 6400 ng/mL | CONCENTRATION (dissolution) ([1]; 10 minutes): 11800 ng/mL | CONCENTRATION (dissolution) ([1]; 15 minutes): 20800 ng/mL | CONCENTRATION (dissolution) ([1]; 20 minutes): 23300 ng/mL | CONCENTRATION (dissolution) ([1]; 30 minutes): 27900 ng/mL | CONCENTRATION (dissolution) ([1]; 60 minutes): 25000 ng/mL | CONCENTRATION (dissolution) ([1]; 90 minutes): 23900 ng/mL | CONCENTRATION (dissolution) ([1]; 120 minutes): 22100 ng/mL | CONCENTRATION (dissolution) ([1]; 180 minutes): 18800 ng/mL | CONCENTRATION (dissolution) ([1]; 240 minutes): 18800 ng/mL | concentration achieved relative to the concentration of compound (I) [1]: 4- to 5 fold | PLASMA CONCENTRATION ([2]; Dog 1, 0.25 hours, oral capsule, 100 mg in terms of the free form): BQL | PLASMA CONCENTRATION ([2]; Dog 1, 0.5 hours, oral capsule, 100 mg in terms of the free form): 428 ng/mL | PLASMA CONCENTRATION ([2]; Dog 1, 1 hour, oral capsule, 100 mg in terms of the free form): 506 ng/mL | PLASMA CONCENTRATION ([2]; Dog 1, 2 hours, oral capsule, 100 mg in terms of the free form): 343 ng/mL | PLASMA CONCENTRATION ([2]; Dog 1, 4 hours, oral capsule, 100 mg in terms of the free form): 219 ng/mL | PLASMA CONCENTRATION ([2]; Dog 1, 6 hours, oral capsule, 100 mg in terms of the free form): 158 ng/mL | PLASMA CONCENTRATION ([2]; Dog 1, 8 hours, oral capsule, 100 mg in terms of the free form): 134 ng/mL | PLASMA CONCENTRATION ([2]; Dog 1, 24 hours, oral capsule, 100 mg in terms of the free form): 102 ng/mL | AREA UNDER PLASMA CONCENTRATION-TIME CURVE ([2]; Dog 1, oral capsule, 100 mg in terms of the free form): 3830 ng·h/mL | PLASMA CONCENTRATION ([2]; Dog 2, 0.25 hours, oral capsule, 100 mg in terms of the free form): BQL | PLASMA CONCENTRATION ([2]; Dog 2, 0.5 hours, oral capsule, 100 mg in terms of the free form): 140 ng/mL | PLASMA CONCENTRATION ([2]; Dog 2, 1 hour, oral capsule, 100 mg in terms of the free form): 457 ng/mL | PLASMA CONCENTRATION ([2]; Dog 2, 2 hours, oral capsule, 100 mg in terms of the free form): 469 ng/mL | PLASMA CONCENTRATION ([2]; Dog 2, 4 hours, oral capsule, 100 mg in terms of the free form): 313 ng/mL | PLASMA CONCENTRATION ([2]; Dog 2, 6 hours, oral capsule, 100 mg in terms of the free form): 224 ng/mL | PLASMA CONCENTRATION ([2]; Dog 2, 8 hours, oral capsule, 100 mg in terms of the free form): 199 ng/mL | PLASMA CONCENTRATION ([2]; Dog 2, 24 hours, oral capsule, 100 mg in terms of the free form): 23 ng/mL | AREA UNDER PLASMA CONCENTRATION-TIME CURVE ([2]; Dog 2, oral capsule, 100 mg in terms of the free form): 4160 ng·h/mL | PLASMA CONCENTRATION ([2]; Dog 3, 0.5 hours, oral capsule, 100 mg in terms of the free form): 377 ng/mL | PLASMA CONCENTRATION ([2]; Dog 3, 1 hour, oral capsule, 100 mg in terms of the free form): 422 ng/mL | PLASMA CONCENTRATION ([2]; Dog 3, 2 hours, oral capsule, 100 mg in terms of the free form): 337 ng/mL | PLASMA CONCENTRATION ([2]; Dog 3, 4 hours, oral capsule, 100 mg in terms of the free form): 272 ng/mL | PLASMA CONCENTRATION ([2]; Dog 3, 6 hours, oral capsule, 100 mg in terms of the free form): 217 ng/mL | PLASMA CONCENTRATION ([2]; Dog 3, 8 hours, oral capsule, 100 mg in terms of the free form): 147 ng/mL | PLASMA CONCENTRATION ([2]; Dog 3, 24 hours, oral capsule, 100 mg in terms of the free form): 20 ng/mL | AREA UNDER PLASMA CONCENTRATION-TIME CURVE ([2]; Dog 3, oral capsule, 100 mg in terms of the free form): 3490 ng·h/mL | PLASMA CONCENTRATION ([2]; Dog 4, 0.25 hours, oral capsule, 100 mg in terms of the free form): BQL | PLASMA CONCENTRATION ([2]; Dog 4, 1 hour, oral capsule, 100 mg in terms of the free form): 422 ng/mL | PLASMA CONCENTRATION ([2]; Dog 4, 2 hours, oral capsule, 100 mg in terms of the free form): 401 ng/mL | PLASMA CONCENTRATION ([2]; Dog 4, 4 hours, oral capsule, 100 mg in terms of the free form): 322 ng/mL | PLASMA CONCENTRATION ([2]; Dog 4, 6 hours, oral capsule, 100 mg in terms of the free form): 248 ng/mL | PLASMA CONCENTRATION ([2]; Dog 4, 8 hours, oral capsule, 100 mg in terms of the free form): 210 ng/mL | PLASMA CONCENTRATION ([2]; Dog 4, 24 hours, oral capsule, 100 mg in terms of the free form): 74 ng/mL | AREA UNDER PLASMA CONCENTRATION-TIME CURVE ([2]; Dog 4, oral capsule, 100 mg in terms of the free form): 4540 ng·h/mL | concentration at 0.25 h ([2]; beagle, dog, plasma, po, 100 mg, Dog 3, 0.25 hours, oral capsule, 100 mg in terms of the free form): 279 ng/mL | concentration at 0.5 h ([2]; beagle, dog, plasma, po, 100 mg, Dog 4, 0.5 hours, oral capsule, 100 mg in terms of the free form): 6 ng/mL | AREA UNDER PLASMA CONCENTRATION-TIME CURVE, MEAN ([2]; oral capsule, 100 mg in terms of the free form, Monomaleate Salt): 4000 ± 450 ng·h/mL | AREA UNDER PLASMA CONCENTRATION-TIME CURVE, MEAN ([2]; oral capsule, 100 mg in terms of the free form, listed as EXAMPLE 1, Monomaleate Salt): 4000 ng·h/mL | PLASMA CONCENTRATION MEAN ([2]; 0.5 hours, oral capsule, 100 mg in terms of the free form): 315 ng/mL | PLASMA CONCENTRATION MEAN ([2]; 1 hour, oral capsule, 100 mg in terms of the free form): 452 ng/mL | PLASMA CONCENTRATION MEAN ([2]; 2 hours, oral capsule, 100 mg in terms of the free form): 388 ng/mL | PLASMA CONCENTRATION MEAN ([2]; 4 hours, oral capsule, 100 mg in terms of the free form): 282 ng/mL | PLASMA CONCENTRATION MEAN ([2]; 6 hours, oral capsule, 100 mg in terms of the free form): 212 ng/mL | PLASMA CONCENTRATION MEAN ([2]; 8 hours, oral capsule, 100 mg in terms of the free form): 172 ng/mL | PLASMA CONCENTRATION MEAN ([2]; 24 hours, oral capsule, 100 mg in terms of the free form): 55 ng/mL | absorption rate compared with compound (I) ([2]; oral capsule to beagle dogs, crossover): higher

COc1ncc(C)c(-c2ccc3c(c2)[nH]c(=O)c2cnn([C@H]4CCOC4)c23)c1C.O=S(=O)(O)c1ccccc1 [Example 2, (S)-7-(2-methoxy-3,5-dimethylpyridin-4-yl)-1-(tetrahydrofuran-3-yl)-1H-pyrazolo[4,3-c]quinolin-4(5H)-one Monobenzenesulfonate Salt]
CONCENTRATION (dissolution) ([1]; 6 minutes): 0 ng/mL | CONCENTRATION (dissolution) ([1]; 10 minutes): 500 ng/mL | CONCENTRATION (dissolution) ([1]; 15 minutes): 7300 ng/mL | CONCENTRATION (dissolution) ([1]; 20 minutes): 9300 ng/mL | CONCENTRATION (dissolution) ([1]; 30 minutes): 10200 ng/mL | CONCENTRATION (dissolution) ([1]; 60 minutes): 10700 ng/mL | CONCENTRATION (dissolution) ([1]; 90 minutes): 10600 ng/mL | CONCENTRATION (dissolution) ([1]; 120 minutes): 10700 ng/mL | CONCENTRATION (dissolution) ([1]; 180 minutes): 9400 ng/mL | CONCENTRATION (dissolution) ([1]; 240 minutes): 9000 ng/mL | concentration achieved relative to the concentration of compound (I) [1]: about 2 fold
